What was measured:
[1] = tested on: CCRF-CEM; assay: Growth inhibition of CCRF-CEM subline resistant to MTX solely as a result of decreased polyglutamylation during continuous (120 h) exposure.; type: functional; details: Homo sapiens, read-out: ED50 (the source's name)
[2] = tested on: CCRF-CEM; assay: Compound was evaluated for growth inhibition of parental CCRF-CEM during continuous (120 h) exposure to MTX; type: functional; details: Homo sapiens, read-out: ED50 (the source's name)
[3] = tested on: CCRF-CEM; assay: Growth inhibition of CCRF-CEM subline resistant to MTX solely as a result of decreased MTX influx during continuous (120 h) exposure.; type: functional; details: Homo sapiens, read-out: ED50 (the source's name)
[4] = target: T1, Dihydrofolate reductase (Homo sapiens, UniProt P00374); assay: Inhibitory activity against purified human dihydrofolate reductase (DHFR) in human leukemia cells (CCRF-CEM)
T1 sequence (P00374 whole entry): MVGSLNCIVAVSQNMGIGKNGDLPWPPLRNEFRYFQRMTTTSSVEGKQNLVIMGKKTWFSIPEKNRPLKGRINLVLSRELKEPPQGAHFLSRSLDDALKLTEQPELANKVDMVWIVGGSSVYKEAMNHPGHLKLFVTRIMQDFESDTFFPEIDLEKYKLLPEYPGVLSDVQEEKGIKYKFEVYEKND

[5] = tested on: CCRF-CEM; assay: Growth inhibition of CCRF-CEM subline resistant to MTX solely as a result of a 25-fold increase in wild-type DHFR activity during continuous (120 h) exposure to MTX; type: functional; details: Homo sapiens, read-out: ED50 (the source's name)
[6] = tested on: CCRF-CEM; assay: cells; details: Homo sapiens, 3 h

Structure (SMILES)	EC50 [1] [nM]	EC50 [2] [nM]	EC50 [3] [nM]	IC50 [4] [nM]	EC50 [5] [nM]	IC50 [6] [nM]
CN(Cc1cnc2nc(N)nc(N)c2n1)c1ccc(C(=O)NC(CC(F)(F)C(=O)O)C(=O)O)cc1 (stereo not drawn)	24.3	29	2150	1530	700	
Nc1nc(N)c2nc(CNc3ccc(C(=O)N[C@@H](CCC(=O)O)C(=O)O)cc3)cnc2n1 [AMINOPTERIN]						3000
CN(Cc1cnc2nc(N)nc(N)c2n1)c1ccc(C(=O)N[C@@H](CCC(=O)O)C(=O)O)cc1 [METHOTREXATE]			2550		655	

— ChEMBL document CHEMBL1129301, “Synthesis and biological evaluation of DL-4,4-difluoroglutamic acid and DL-gamma,gamma-difluoromethotrexate” (J Med Chem, 1996)
